According to patent publication US4717716A, “Immuno-regulator” (Nihon University, priority 1985, dated 1988):
Values joined by “and” are separate entries in the source; they are usually repeats but may differ in a detail not shown here. Identical values can stand only once.

Tests used:
[1] = tested on: anti-SRBC antibody in serum of mice immunized with SRBC; experiment: Determination of serum antibody value (hemagglutination titer, HA-titer); assay type: in vivo, mouse; conditions: for Anti-SRBC Antibody Value N: maximal positive dilution 2^N
Protocol: Blood was collected in the PFC reaction from carotid arteries of a group of five mice, from which was separated a serum in a conventional manner for determination of hemagglutination titer (HA-titer). The test serum was diluted with a phosphate buffered saline (PBS) containing 0.5-1% of a serum from a normal rabbit, and was evaluated using SRBC. The maximal dilution showing positive reaction was represented by 2^N, wherein N represents an antibody value.

DDY male mouse = experiment: Acute toxicity of L-carnosine in mice; assay type: in vivo
Protocol: L-carnosine was administered peritoneally or orally in different amounts to a group of 10 mice and acute toxic symptoms were observed 5 hours after administration. […] L-carnosine was dissolved in a physiological saline so as to give a dose of 0.1 to 0.3 ml/10 g.

[2] = Physicochemical properties of L-carnosine
[3] = tested on: male DDY mouse sensitized with picryl chloride; experiment: Delayed hypersensitivity reaction (picryl chloride contact dermatitis); assay type: in vivo; conditions: for Increase of Ear control %: 0 mg/kg/day = 100; for Thickness × 10^-3cm Increase of Ear: 1% picryl chloride, average of 8 mice ± S.D.
Text: A male DDY mouse of 5 weeks are weighing about 20 g was used to detect its contact dermatitis by means of 2, 4, 6-trinitro-chlorobenzene (picryl chloride) (available from Tokyo Chemical Industry Co., Ltd). An ethanol solution of 1% picryl chloride was impregnated into 4-layered gauge (1×1 cm), which was then contacted with a shaved abdomen of the mouse for 10 seconds to cause primary sensitization. The secondary sensitization for test was caused on seventh day by applying an olive oil solution of 1% picryl chloride on both surfaces of one ear by means of a paint brush. The other ear had applied only olive oil as a control. After 24 hours, the mouse was anesthetized with ether, and thickness of the ear was determined in the order of 1/100 mm by a micrometer having precision of 1/100 mm. The delayed hypersensitivity reaction was calculated as follows: […]
(Thickness of Ear Applied with Picryl Chloride after 24 Hours--Thickness of Ear before Application) minus (Thickness of Ear Applied with Olive Oil After 24 Hours--Thickness of Ear before Application).
L-carnosine was administered subcutaneously in the indicated amount for 14 days. On the 7th day, sensitization was conducted by 1% picryl chloride, and examination was carried out on 7 days later. Values are shown in an average of 8 mices ±S.D.

[4] = tested on: plaque-forming cells of DDY mouse immunized with sheep red blood cells (SRBC); experiment: PFC method (hemolytic plaque-forming cells) in mice immunized with SRBC; assay type: in vivo; conditions: for PFC Number per g. Spleen: 4 days after immunization; for PFC reaction: mouse of 5 weeks age, 2.5×10^8 SRBC
[5] = formulated by LISA corporation in Spain since 10 years; cited from earlier work
[6] = SRBC antigen amount 2.5 × 10^9, 100 mg/Kg/day S.C. for six days
[7] = SRBC antigen amount 5 × 10^7, 100 mg/Kg/day S.C. for six days
[8] = mice of 2 weeks age, 100 mg/Kg/day S.C., 2.5 × 10^8 SRBC
[9] = mice of 5 weeks age, 100 mg/Kg/day S.C., 2.5 × 10^8 SRBC
[10] = mice of 30 weeks age, 100 mg/Kg/day S.C., 2.5 × 10^8 SRBC
[11] = 50 mg/kg/day subcutaneously for 14 days
[12] = 250 mg/kg/day subcutaneously for 14 days
[13] = 500 mg/kg/day subcutaneously for 14 days

NCCC(=O)N[C@@H](Cc1cnc[nH]1)C(=O)O [L-carnosine, β-alanyl-L-histidine]
Anti-SRBC Antibody Value N ([1]; 25 mg/kg for 6 days, 2.5 × 10^8 SRBC): 9
Anti-SRBC Antibody Value N ([1]; 50 mg/kg for 6 days, 2.5 × 10^8 SRBC): 10
Anti-SRBC Antibody Value N ([1]; 250 mg/kg for 6 days, 2.5 × 10^8 SRBC): 9
Anti-SRBC Antibody Value N ([1]; 500 mg/kg for 6 days, 2.5 × 10^8 SRBC): 8
Anti-SRBC Antibody Value N [1, 6]: 8
Anti-SRBC Antibody Value N [1, 7]: 4
hemagglutination reaction ([1]; level of more than 500 mg/Kg): subsided
Anti-SRBC Antibody Value N [1, 8]: 6-7
Anti-SRBC Antibody Value N [1, 9]: 9-10
Anti-SRBC Antibody Value N [1, 10]: 9
acute toxicity, overall (DDY male mouse; DDY male mouse): very low toxicity
effective amount as fraction of acute toxicity LD50 (DDY male mouse; mouse, in vivo): 1/181
mice killed (DDY male mouse; mouse, in vivo): one of the 10
toxic effect of oral administration (DDY male mouse; oral 15,000 mg/Kg, mice): little effect
LD50 (minimal lethal dose) (DDY male mouse; oral, DDY male mouse, value on 72 hours): > 14,930 mg/Kg
toxic symptoms (DDY male mouse; peritoneal 15,000 mg/Kg, from about 30 minutes, a half of the mice): depression of voluntary motility, abdominal position, depression and irregularity of respiration rate
LD 100 (DDY male mouse; peritoneal administration, mice): 15,000 mg/Kg
LD50 (95% confidence limit) (DDY male mouse; peritoneal, DDY male mouse, value on 72 hours): 9,087 (8,320-9,925) mg/Kg and 9,087 mg/Kg
solubility in water [2]: readily soluble in water
Increase of Ear control % [3, 11]: 122.6%
Thickness × 10^-3cm Increase of Ear [3, 11]: 14.1 ± 3.6 × 10^-3cm
Increase of Ear control % [3, 12]: 136.5%
Thickness × 10^-3cm Increase of Ear [3, 12]: 15.7 ± 2.5 × 10^-3cm
Increase of Ear control % [3, 13]: 185.2%
Thickness × 10^-3cm Increase of Ear [3, 13]: 21.3 ± 8.7 × 10^-3cm
DHR with 1% picryl chloride ([3]; doses of 50, 250 and 500 mg/Kg): increasing trend of reaction
PFC Number per Chamber ([4]; 25 mg/kg): 53.0 ± 6.1
PFC Number per Spleen ([4]; 25 mg/kg): 10.7 × 10^4
PFC Number per g. Spleen (%) ([4]; 25 mg/kg for 6 days, 2.5 × 10^8 SRBC, 0 mg/kg = 100): 133%
PFC Number per g. Spleen ([4]; 25 mg/kg for 6 days, 2.5 × 10^8 SRBC, mice): 7.6 × 10^5
PFC Number per Chamber (%) ([4]; 25 mg/kg, 144 h): 88%
PFC Number per Spleen (%) ([4]; 25 mg/kg, 144 h): 123%
Weight of Spleen (%) ([4]; 25 mg/kg, 144 h): 92%
PFC Number per Chamber ([4]; 50 mg/kg): 73.6 ± 6.2
PFC Number per Spleen ([4]; 50 mg/kg): 14.9 × 10^4
PFC Number per g. Spleen (%) ([4]; 50 mg/kg for 6 days, 2.5 × 10^8 SRBC, 0 mg/kg = 100): 149%
PFC Number per g. Spleen ([4]; 50 mg/kg for 6 days, 2.5 × 10^8 SRBC, mice): 8.5 × 10^5
PFC Number per Chamber (%) ([4]; 50 mg/kg, 144 h): 122%
PFC Number per Spleen (%) ([4]; 50 mg/kg, 144 h): 171%
Weight of Spleen (%) ([4]; 50 mg/kg, 144 h): 116%
effect on the PFC response ([4]; 100 mg/kg): No effect
PFC decreased ([4]; 100 mg/kg, 144 h): 30%
PFC increased ([4]; 100 mg/kg, 144 h): 30%
PFC Number per Chamber ([4]; 250 mg/kg): 69.8 ± 6.5
PFC Number per Spleen ([4]; 250 mg/kg): 14.6 × 10^4
PFC Number per g. Spleen (%) ([4]; 250 mg/kg for 6 days, 2.5 × 10^8 SRBC, 0 mg/kg = 100): 167%
PFC Number per g. Spleen ([4]; 250 mg/kg for 6 days, 2.5 × 10^8 SRBC, mice): 9.5 × 10^5
PFC Number per Chamber (%) ([4]; 250 mg/kg, 144 h): 116%
PFC Number per Spleen (%) ([4]; 250 mg/kg, 144 h): 168%
Weight of Spleen (%) ([4]; 250 mg/kg, 144 h): 100%
PFC Number per Chamber ([4]; 500 mg/kg): 64.8 ± 4.9
PFC Number per Spleen ([4]; 500 mg/kg): 8.3 × 10^4
PFC Number per g. Spleen (%) ([4]; 500 mg/kg for 6 days, 2.5 × 10^8 SRBC, 0 mg/kg = 100): 107%
PFC Number per g. Spleen ([4]; 500 mg/kg for 6 days, 2.5 × 10^8 SRBC, mice): 6.1 × 10^5
PFC Number per Chamber (%) ([4]; 500 mg/kg, 144 h): 107%
PFC Number per Spleen (%) ([4]; 500 mg/kg, 144 h): 95%
Weight of Spleen (%) ([4]; 500 mg/kg, 144 h): 89%
PFC Number per g. Spleen (%) ([4]; 2 weeks age, 100 mg/Kg/day S.C., 2.5 × 10^8 SRBC, normal = 100): 64%
PFC Number per g. Spleen (%) ([4]; 5 weeks age, 100 mg/Kg/day S.C., 2.5 × 10^8 SRBC, normal = 100): 110%
PFC Number per g. Spleen (%) ([4]; 30 weeks age, 100 mg/Kg/day S.C., 2.5 × 10^8 SRBC, normal = 100): 177%
PFC Number per g. Spleen (%) ([4]; SRBC 2.5 × 10^9, 100 mg/Kg/day S.C. six days, normal = 100): 71%
PFC Number per g. Spleen (%) ([4]; SRBC 5 × 10^7, 100 mg/Kg/day S.C. six days, normal = 100): 119%
PFC Number per g. Spleen (%) ([4]; SRBC 5 × 10^8, 100 mg/Kg/day S.C. six days, normal = 100): 53%
PFC Number per g. Spleen [4, 6]: 10.2 × 10^5
PFC Number per g. Spleen [4, 7]: 5.0 × 10^5
PFC Number per g. Spleen ([4]; SRBC antigen amount 5 × 10^8, 100 mg/Kg/day S.C. for six days): 8.2 × 10^5
effect on the PFC response ([4]; immature mouse of 2 weeks age, 100 mg/Kg for 9 days): suppressed
PFC Number per g. Spleen [4, 8]: 4.8 × 10^5
PFC Number per g. Spleen [4, 9]: 12.5 × 10^5
PFC Number per g. Spleen [4, 10]: 11.7 × 10^5
PFC reaction ([4]; 50 and 250 mg/Kg for 6 days): increased
PFC reaction ([4]; dose of more than 500 mg/Kg): subsided
effect on the PFC response ([4]; old mouse of 30 weeks age, 100 mg/Kg for 9 days): doubly strengthened
optimum dosage for the immuno-regulatory action ([4]; sc): 100 mg/kg/day
Weight of Spleen (%) ([4]; sc, 100 mg/kg/day, 336 h): 93%
PFC Number per Chamber (%) ([4]; sc, 100 mg/kg/day, 840 h): 107%
PFC Number per Spleen (%) ([4]; sc, 100 mg/kg/day, 840 h): 110%
Weight of Spleen (%) ([4]; sc, 100 mg/kg/day, 840 h): 100%
Weight of Spleen (%) ([4]; sc, 100 mg/kg/day, 5040 h): 121%
safety in use as anorexia treating agent [5]: confirmed to be safe
